This assay deals with spontaneously hypertensive rats (SHR). Put plainly: Antihypertensive activity test: blood pressure and heart rate of spontaneously hypertensive rats (SHR). Type of assay: in vivo, rat. As to conditions: 200 mg/kg. How it is done:
Tested Drugs: Compounds of the Invention. The dosage of all compound was uniformly set to 200 mg/kg.
In the test, changes in the blood pressure before and after the administration were detected, and compared with the basic value, a reduction of SBP ≥20 mmHg after administration was judged as effective antihypertensive effects; and at the same time, changes in the heart rate before and after the administration were detected.
Heart rate was expressed as mean±standard deviation (x±s). The changes of heart rate before and after the administration were compared by using Two-sample equal variance paired t test, and P<0.05 was regarded as the standard of statistically significant difference.

The source of these data is patent publication US12180146B2, “Antihypertensive polyol compound and derivative thereof” (TAO PHARMACEUTICAL (SUZHOU) CO., LTD, priority 2020, dated 2024).

In the case of `COP(=O)(OC)OCC(O)c1ccccc1` (stereo not shown) [Compound 20], the “SBP Difference before and after administration, 1 h” value is given as 6 mmHg; the “SBP Difference before and after administration, 2 h” value was 10 mmHg; the “SBP Difference before and after administration, 3 h” value is 3 mmHg; the “SBP Difference before and after administration, 4 h” value is given as 9 mmHg. In addition, the “SBP Difference before and after administration, 5 h” value is 7 mmHg; the “SBP Difference before and after administration, 6 h” value came out at 2 mmHg. In addition, the “SHR blood pressure (SBP), time after administration 0 h” value (0 h, n = 8) stood at 192 ± 7.98 mmHg. Under “n = 8”, the “SHR blood pressure (SBP), time after administration 1 h” value is 186 ± 9.55 mmHg; the “SHR blood pressure (SBP), time after administration 2 h” value was determined as 182 ± 7.36 mmHg; the “SHR blood pressure (SBP), time after administration 3 h” value is 189 ± 4.07 mmHg; the “SHR blood pressure (SBP), time after administration 4 h” value stood at 183 ± 7.15 mmHg. Further, under “n = 8”, the “SHR blood pressure (SBP), time after administration 5 h” value is 185 ± 5.61 mmHg and the “SHR blood pressure (SBP), time after administration 6 h” value stood at 190 ± 6.66 mmHg.

Regarding `CC(C)(O)[C@H](O)[C@H](O)c1cccc2[nH]ccc12` [Compound 21], the “SBP Difference before and after administration, 1 h” value is 11 mmHg; the “SBP Difference before and after administration, 2 h” value worked out at 13 mmHg; the “SBP Difference before and after administration, 3 h” value was 12 mmHg; the “SBP Difference before and after administration, 4 h” value amounted to 17 mmHg. Besides, the “SBP Difference before and after administration, 5 h” value is 13 mmHg; the “SBP Difference before and after administration, 6 h” value was found to be 11 mmHg. Besides, where the note is “n = 8”, the “SHR blood pressure (SBP), time after administration 1 h” value is 184 ± 10.6 mmHg; the “SHR blood pressure (SBP), time after administration 2 h” value is 182 ± 10.4 mmHg; the “SHR blood pressure (SBP), time after administration 3 h” value turned out to be 183 ± 9.90 mmHg; the “SHR blood pressure (SBP), time after administration 4 h” value is reported as 178 ± 6.61 mmHg. Moreover, where the note is “n = 8”, the “SHR blood pressure (SBP), time after administration 5 h” value stood at 182 ± 7.25 mmHg and the “SHR blood pressure (SBP), time after administration 6 h” value stood at 184 ± 12.1 mmHg.

Regarding `CCc1cccc(C(O)COC(=O)[C@@H](C)N)c1` (stereo partly shown) [Compound 22], the “SBP Difference before and after administration, 1 h” value is on record as 11 mmHg; the “SBP Difference before and after administration, 2 h” value is recorded as 14 mmHg; the “SBP Difference before and after administration, 3 h” value came to 26 mmHg; the “SBP Difference before and after administration, 4 h” value came out at 25 mmHg. The “SBP Difference before and after administration, 5 h” value was found to be 24 mmHg; the “SBP Difference before and after administration, 6 h” value came to 20 mmHg. In addition, where the note is “n = 8”, the “SHR blood pressure (SBP), time after administration 1 h” value was found to be 187 ± 6.39 mmHg; the “SHR blood pressure (SBP), time after administration 2 h” value amounted to 184 ± 4.69 mmHg; the “SHR blood pressure (SBP), time after administration 3 h” value is on record as 171 ± 12.14 mmHg; the “SHR blood pressure (SBP), time after administration 4 h” value worked out at 173 ± 13.7 mmHg. For the setting “n = 8”, the “SHR blood pressure (SBP), time after administration 5 h” value worked out at 174 ± 15.9 mmHg and the “SHR blood pressure (SBP), time after administration 6 h” value came to 178 ± 8.78 mmHg.

Regarding `CCc1cccc(C(CO)OC(=O)CN)c1` (stereo not shown) [Compound 23], the “SBP Difference before and after administration, 1 h” value was 10 mmHg; the “SBP Difference before and after administration, 2 h” value turned out to be 9 mmHg; the “SBP Difference before and after administration, 3 h” value turned out to be 15 mmHg; the “SBP Difference before and after administration, 4 h” value is 13 mmHg. The “SBP Difference before and after administration, 5 h” value came to 18 mmHg; the “SBP Difference before and after administration, 6 h” value amounted to 18 mmHg. Moreover, where the note is “n = 8”, the “SHR blood pressure (SBP), time after administration 1 h” value stood at 186 ± 6.39 mmHg; the “SHR blood pressure (SBP), time after administration 2 h” value was found to be 187 ± 4.66 mmHg; the “SHR blood pressure (SBP), time after administration 3 h” value turned out to be 181 ± 9.15 mmHg; the “SHR blood pressure (SBP), time after administration 4 h” value was determined as 183 ± 13.7 mmHg. For the setting “n = 8”, the “SHR blood pressure (SBP), time after administration 5 h” value is reported as 178 ± 15.9 mmHg and the “SHR blood pressure (SBP), time after administration 6 h” value is on record as 178 ± 8.78 mmHg.
